Results as given in patent US20210161868A1, “ANTI-INFLAMMATORY THERAPY IN ARRHYTHMOGENIC CARDIOMYOPATHY (ACM)” (Beth Israel Deaconess Medical Center, Inc., priority 2018, published 2021).

Test system: Dsg2^mut/mut mice
Assay: Myocardial histology, TUNEL, immunofluorescence and immunoperoxidase in Dsg2^mut/mut mice
Format: in vivo
Description: Three cohorts of mice at 8 weeks of age were anesthetized and implanted with subcutaneous osmotic mini-pumps (Alzet, Model 1004). These included: 1) Dsg2^mut/mut mice with pumps containing 50 μg/μL Bay11-7082 in a vehicle of 65% DMSO, 15% ethanol, and 20% saline; 2) Dsg2^mut/mut mice with pumps containing an equivalent volume of vehicle; and 3) wildtype mice with pumps containing vehicle. Mice in cohort 1 received 5 mg/kg/day of Bay11-7082 by continuous infusion; those in cohorts 2 and 3 received an equivalent volume of vehicle each day for 4 weeks. At 12 weeks of age, mice were re-anesthetized and new Alzet pumps were implanted for an additional 4 weeks of treatment.
Immunofluorescence staining was used to characterize the distribution of selected proteins at cell-cell junctions as previously reported.^6,15 Deparaffinized slide-mounted myocardial sections (5 μm thick) were rehydrated and heated in citrate buffer (10 mmol/L, pH 6.0) to enhance specific immunostaining. After being cooled to room temperature, tissue sections were simultaneously permeabelized and blocked by incubating them in PBS containing 1% Triton X-100, 3% normal goat serum and 1% bovine serum albumin. The sections were then incubated first with primary antibodies and then with Cy3-conjugated goat anti-rabbit IgG (Jackson Immunolabs, 1:400). Primary antibodies included rabbit polyclonal anti-Cx43 (SIGMA C6219, 1:200), anti-N-cadherin (SIGMA C3678, 1:400), anti-plakoglobin (Thermo Fisher Scientific PA5-17320, 1:500), anti-GSK3β (Cell Signaling Technology 27C10, 9315S, 1:80) and anti-SAP97 (Abcam, ab134156, 1:200). Immunostained preparations were visualized by confocal microscopy. Additional sections prepared with Masson trichrome and hematoxylin & eosin stains were examined by light microscopy.
Immunoperoxidase staining was used to detect expression of selected cytokines in sections of mouse myocardium as previously reported.^12 Slide-mounted paraffin sections were heated to 60° C. for 80 minutes, cooled to room temperature, deparaffinized, and rehydrated. Antigen retrieval was achieved by heating the samples in citrate buffer (pH 6.0) to boiling followed by cooling to room temperature. Immunohistochemical staining was performed using conventional methods (Universal DAKO EnVision System; peroxidase). Once endogenous peroxidase activity had been blocked, primary antibody was applied followed by incubation with horseradish peroxidase-labeled polymer. The reaction was completed with an enzyme/substrate system, with diaminobenzidine as the chromogen substrate. The tissue was counterstained with Harris hematoxylin. Primary antibodies included rabbit polyclonal anti-TNFα (AbCam ab34674, 1:50 dilution), anti-IL-1(3 (AbCam ab9722, 1:500) and anti-MCP-1α (Novus Biologicals NBP2-41209, 1:250). In each experiment, control, vehicle-treated and drug-treated samples were batched to ensure identical staining and signal-generating conditions.
Immunoperoxidase staining using conventional techniques was also used to detect T-cells and macrophages in myocardial tissue sections from Dsg2^mut/mut mice. T-cells were identified using an anti-CD3 antibody (Abcam ab16669, 1:200 dilution) and macrophages were marked with an anti-CD68 antibody (Abcam ab127055, 1:400). After standard development in diaminobenzidine, sections were counterstained with hematoxylin and examined qualitatively by light microscopy.

[1] = Dsg2^mut/mut mice, continuous infusion over 8 weeks

## Cc1ccc(S(=O)(=O)/C=C/C#N)cc1 [Bay 11-7082]
[1]
  abnormal distributions of plakoglobin, Cx43, GSK3β and SAP97: normalized
  amount of ventricular myocardial necrosis and fibrosis: marked reduction
  number of apoptotic cells seen by TUNEL labeling: significant reduction
Dsg2^mut/mut mice, continuous infusion over 8 weeks, listed as Bay11-7082
  abnormal distributions of plakoglobin, Cx43, GSK3β and SAP97: fully corrected
Myocardial sections of Dsg2^mut/mut mice
  immunoreactive signal intensity for IL-1β, TNFα and MCP-1α in myocytes and inflammatory cells: reduced
Survey of myocardial sections, Dsg2^mut/mut mice
  total number of infiltrating inflammatory cells in the heart: reduced
